Reference: patent US20230391785A1, “NITROGEN-CONTAINING HETEROCYCLIC COMPOUND, METHOD FOR PREPARING SAME AND USE OF SAME” (280 Bio, Inc., priority 2021, published 2023)
Where two headings read alike, the source gives them in different places.

Columns and labels:
Format in all cases: cell-based
[1] = test system: AGS gastric cancer cell line (KRAS G12D mutation); assay: Proliferation inhibition measured by CTG (CellTiter Glo), AGS; settings: CTG, 120 hours incubation
Description: (§1) NCI-H358 is a human non-small cell lung cancer cell line with KRAS G12C mutation; PANC-1 and AsPC-1 are pancreatic cancer cell lines with KRAS G12D mutation; AGS is a gastric cancer cell line with KRAS G12D mutation; A427 is a lung cancer cell line with KRAS G12D mutation; THP-1 is a leukemia cell line with NRAS G12D mutation; Hs 578T is a breast cancer cell line with HRAS G12D mutation; SW480 is a colon cancer cell lines with KRAS G12V mutation; A375 is a wild type malignant melanoma cell line. The proliferation inhibitory effect of the compounds on various mutations was evaluated by determining the proliferation inhibitory activity of the compounds on these cell lines.
(§2) The assay was conducted on either 384-well plates or 96-well plates. The procedures are as follows:
(§3) The cell suspensions were added to 384- or 96-well plates (384-well plate: 40 μL; 96-well plate: […]) except for peripheral wells. The plates were incubated in a carbon dioxide incubator overnight. Prepared compounds (10 concentration gradients by serial 3-fold dilution) were added to the wells. The cell plates were incubated in a carbon dioxide incubator for 120 hours. CellTiter Glo reagent (384 well plate: 25 μL; 96 well plate: 100 μL) was added to the 384- or 96-well plates. The plates were shaken for 10 minutes away from light, and incubated for 10 minutes. The plates were read by EnVision system. Inhibition curves were plotted using XLFit and IC50 values were calculated. “IC50>10 μM” is denoted by “*”, “10 μM≥IC50>1 μM” is denoted by “**”, “1 μM≥IC50>100 nM” is denoted by “***”, and “IC50≤100 nM” is denoted by “****”.

[2] = test system: A375 wild type malignant melanoma cell line; assay: Proliferation inhibition measured by CTG (CellTiter Glo), A375; settings: Homo sapiens, A-375, CTG, 120 hours incubation
Description: as §1, §2, §3

[3] = test system: NCI-H358 cells (KRAS G12C mutation); assay: Proliferation inhibition measured by CTG (CellTiter Glo), NCI-H358; settings: Homo sapiens, 120 hours incubation
Description: as §1, §2, §3

[4] = test system: SW480 colon cancer cell line (KRAS G12V mutation); assay: Proliferation inhibition measured by CTG (CellTiter Glo), SW480; settings: Homo sapiens
Description: as §1, §2, §3

[5] = Table 2, read-out: IC50 AGS (G12D)
[6] = Table 2, read-out: IC50 A375 (wide type)
[7] = Table 2, CTG, read-out: IC50 H358 (G12C)
[8] = Table 1, class symbol, read-out: IC50 (AGS)
[9] = Table 1, class symbol, read-out: IC50 (A375)
[10] = Table 1, CTG, class symbol, read-out: IC50 (H358)
[11] = Table 3, class symbol, read-out: IC50 (AGS)
[12] = Table 3, CTG, class symbol, read-out: IC50 (H358)
[13] = Table 3, 120 hours incubation, class symbol, read-out: IC50 (SW480)
[14] = Table 3, class symbol, read-out: IC50 (A375)

| SMILES | IC50 [1, 5] [nM] | IC50 [2, 6] [nM] | IC50 [3, 7] [nM] | IC50 [1, 8] [nM] | IC50 [2, 9] [nM] | IC50 [3, 10] [nM] | IC50 [1, 11] [nM] | IC50 [3, 12] [nM] | IC50 ([4]; Table 2, 120 hours incubation, read-out: IC50 SW480 (G12V)) [nM] | IC50 [4, 13] [nM] | IC50 [2, 14] [nM] |
| --- | --- | --- | --- | --- | --- | --- | --- | --- | --- | --- | --- |
| CN1CCC[C@H]1COc1nc2c(c(N3CCn4cnc(C5CC5)c4C3)n1)CCN(c1cccc3cccc(Cl)c13)C2 [Compound 40] |  |  |  | 100 to 1000 | 100 to 1000 | 100 to 1000 |  |  |  |  |  |
| CN1CCC[C@H]1COc1nc2c(c(N3CCn4cncc4C3)n1)CCN(c1cc(O)cc3ccccc13)C2 [Compound 43] |  |  |  |  |  |  | 100 to 1000 | 100 to 1000 |  |  |  |
| C[C@@H]1Cn2cncc2CN1c1nc(OC[C@@H]2CCCN2C)nc2c1CCN(c1cccc3cccc(Cl)c13)C2 [Compound 44] | 24 | 36 | 33 |  |  |  | ≤ 100 | ≤ 100 | 25 | ≤ 100 | ≤ 100 |
| CN1CCC[C@H]1COc1nc2c(c(N3CCn4c(cnc4Br)C3)n1)CCN(c1cccc3cccc(Cl)c13)C2 [Compound 49] |  |  |  |  |  |  | 100 to 1000 | 100 to 1000 |  | 1000 to 10000 | 1000 to 10000 |
| CN1CCC[C@H]1COc1nc2c(c(N3CCn4c(cnc4C4CC4)C3)n1)CCN(c1cccc3cccc(Cl)c13)C2 [Compound 53] |  |  |  |  |  |  | 1000 to 10000 | 1000 to 10000 |  | 1000 to 10000 | 1000 to 10000 |
| C[C@@H]1Cn2cncc2CN1c1nc(O[C@@H]2CCN(C)C2)nc2c1CCN(c1cccc3cccc(Cl)c13)C2 [Compound 57] |  |  |  |  |  |  | ≤ 100 | ≤ 100 |  | ≤ 100 | 100 to 1000 |
| C[C@@H]1Cn2cncc2CN1c1nc(OC[C@H]2CCCN2C)nc2c1CCN(c1cccc3cccc(Cl)c13)C2 [Compound 58] |  |  |  |  |  |  | ≤ 100 | ≤ 100 |  | ≤ 100 | 100 to 1000 |
| C[C@@H]1Cn2cncc2CN1c1nc(OC[C@@H]2CCCCN2C)nc2c1CCN(c1cccc3cccc(Cl)c13)C2 [Compound 64] |  |  |  |  |  |  | ≤ 100 | ≤ 100 |  | ≤ 100 | ≤ 100 |
| C[C@@H]1Cn2cncc2CN1c1nc(OC[C@@H]2CCCN2C)nc2c1CCN(c1cc(O)cc3ccccc13)C2 [Compound 66] |  |  |  |  |  |  | ≤ 100 | ≤ 100 |  | 100 to 1000 | 100 to 1000 |

Further lines, results first:

| IC50 [1, 5] [nM] | IC50 [2, 6] [nM] | IC50 [3, 7] [nM] | IC50 [1, 8] [nM] | IC50 [2, 9] [nM] | IC50 [3, 10] [nM] | IC50 [1, 11] [nM] | IC50 [3, 12] [nM] | IC50 ([4]; Table 2, 120 hours incubation, read-out: IC50 SW480 (G12V)) [nM] | IC50 [4, 13] [nM] | IC50 [2, 14] [nM] | SMILES |
| --- | --- | --- | --- | --- | --- | --- | --- | --- | --- | --- | --- |
| 1480 | 1610 | 1230 |  |  |  |  |  |  |  |  | C=Cc1ncc2n1CCN(c1nc(OC[C@@H]3CCCN3C)nc3c1CCN(c1cccc4cccc(Cl)c14)C3)C2 [Comparative compound 2′, reference compound] |
| 1180 | 1500 | 1040 |  |  |  |  |  |  |  |  | C=Cc1ncc2n1CCN(c1nc(OC[C@@H]3CCCN3C)nc3c1CCN(c1cccc4ccccc14)C3)C2 [Comparative compound 3′, reference compound] |
|  |  |  | ≤ 100 | 100 to 1000 | 100 to 1000 |  |  |  |  |  | Cc1ncn2c1CN(c1nc(OC[C@@H]3CCCN3C)nc3c1CCN(c1cccc4cccc(Cl)c14)C3)CC2 [Compound 41] |
|  |  |  |  |  |  | 1000 to 10000 | 1000 to 10000 |  | 1000 to 10000 | 1000 to 10000 | CN1CCC[C@H]1COc1nc2c(c(N3CCn4c(cnc4-c4ccccc4)C3)n1)CCN(c1cccc3cccc(Cl)c13)C2 [Compound 50] |
|  |  |  |  |  |  | 100 to 1000 | 100 to 1000 |  | 1000 to 10000 | 1000 to 10000 | CN1CCC[C@H]1COc1nc2c(c(N3CCn4cnc(C(N)=O)c4C3)n1)CCN(c1cccc3cccc(Cl)c13)C2 [Compound 52] |
|  |  |  |  |  |  | 100 to 1000 | 100 to 1000 |  | 100 to 1000 | 1000 to 10000 | C[C@@H]1Cn2cncc2CN1c1nc(O[C@@H]2CCCN(C)C2)nc2c1CCN(c1cccc3cccc(Cl)c13)C2 [Compound 60] |
|  |  |  |  |  |  | ≤ 100 | ≤ 100 |  | ≤ 100 | 100 to 1000 | CCN1CCC[C@H]1COc1nc2c(c(N3Cc4cncn4C[C@H]3C)n1)CCN(c1cccc3cccc(Cl)c13)C2 [Compound 63] |
|  |  |  |  |  |  | ≤ 100 | ≤ 100 |  | ≤ 100 | 100 to 1000 | C[C@@H]1Cn2cncc2CN1c1nc(OC[C@@H]2CCCN2C)nc2c1CCN(c1cccc3ccccc13)C2 [Compound 68] |
